Data published in patent publication US8691872B2 (Teva Pharmaceutical Industries Ltd., priority 2010, dated 2014).
Like-named read-outs stand apart in the source and are kept apart here.

Assays:
[1] = AZILECT; cited from earlier work
[2] = Method: As used herein, a “glass transition temperature (Tg)” of a solid is the temperature where the solid goes from a rigid state to a flexible state. At Tg, a polymer undergoes a phase transition from a hard, glass-like state to a flexible, rubber-like state. The Tg temperature values listed herein were determined based upon half-height of the step change or “S” shape curve seen in DSC data.
Dispersions were prepared using several techniques including rotary evaporation from solution, cryogrinding dry components and lyophilization. Samples were analyzed by modulated Differential Scanning calorimetry (DSC) to determine glass transition temperatures (Tg). A slight excess of citric acid was used in most dispersions i.e. 0.7:1 mol of rasagiline: citric acid.
In the following experiment, rasagiline base was mixed with citric acid (1:1 mol:mol) and then methanol was added to the mixture. After stirring and complete dissolution of solids, the solution was evaporated under vacuum in rotary evaporator at bath temperature 60° C.

[3] = Modulated DSC (MDSC), glass transition temperature (Tg); type: physicochemical; details: Table 1

SMILES | absolute bioavailability [1] | Tg ([2]; by DSC) [°C] | Tg ([2]; cyclic DSC) | Tg [3]
C#CCN[C@@H]1CCc2ccccc21 [Rasagiline, R(+)-N-propargyl-1-aminoindan] | about 36% | – | – | –
C#CCN[C@@H]1CCc2ccccc21.O=C(O)CC(O)(CC(=O)O)C(=O)O [Sample 1, mono-rasagiline citrate] | – | ~17 | Tg = 18 °C | Tg = 16 °C
